The results in this text go back to patent US20220088275A1, “HYDROGELS, METHODS OF MAKING, AND METHODS OF USE” (Convalesce Inc., priority 2019, published 2022).

Peptide text beside a SMILES is read from it.

One data set concerns SHSY5Y cells. The data set is described as follows: in vitro. In kind it is cell-based. Conditions: incubated for 24 hours; FIG. 10. On the procedure:
(§1) To determine the viability of cells within the hydrogels formed by L1 and L3, a Calcein-AM based toxicity assay was carried out. SHSY5Y cells were used for the toxicity assay. Cells were cultured in complete DMEM with 10% FBS, 1× Glutamax and 1% pen-strep antibiotic cocktail in a humidified incubator at 37° C. with 5% CO2. Cells cultured at 80% confluency in the culture vessel were used for the assay. SHSY5Y cells were washed with phosphate-buffered saline and treated with Accutase® to lift them of the culture vessel. Subsequently, it was neutralized with a double amount of complete media and centrifuged at 300 rpm for 5 minutes to obtain a cell pellet. Around 10,000 live cells (counted on a hemocytometer by Trypan blue exclusion) were added to 20 μL of each hydrogel and plated in a well of a 96 well polystyrene TC plate (with technical replicate=3). After 20 minutes, 100 μL complete media was added to each well. For control, a similar number of cells were added to a well without the hydrogel. 20 μL of phosphate buffer was added to each of the control wells. Cells were cultured for 24 hours before performing the Calcein-AM assay. Calcein-AM assay was carried out according to manufacturer's protocol. The viable cells were imaged with a wide-field fluorescence microscope and quantified.

A short description of a further data set: in vitro. Conditions: human. In kind it is cell-based. The method, then:
as §1

Data set [1] is described as follows: Hydrogel formation from laminin derived peptides. Format: physicochemical. Particulars: 1 mg peptide in 200 μL 20 mM phosphate buffer pH 7.4, NaCl 50 mM to 150 mM, 24 hours. On the procedure:
As an example of hydrogels based on self-aggregating peptides derived from non-amyloid proteins, laminin hydrogels were generated. Laminin was analyzed in silico to identify self-aggregating regions. After identification of such a region in the protein, its sequence was further modified to facilitate peptide self-assembly, and subsequently cross-beta sheet formation. Three peptides, L1-L3, were designed. The peptides were synthesized by a commercial vendor with 99% purity.
For forming the hydrogels, 1 mg peptide was mixed with 180 μL of 20 mM phosphate buffer, pH 7.4. The pH of this solution was raised to 10 by the gradual addition of 2N NaOH. NaCl was added to this solution in different quantities with a range from 50 mM to 150 mM final concentration. The pH of the solution was finally adjusted to 7.4 and the final volume of the solution was 200 μL. The solution was left undisturbed for 24 hours to facilitate the hydrogel formation.

On to `CC(C)C[C@H](NC(=O)[C@H](Cc1ccc(O)cc1)NC(=O)[C@H](Cc1ccccc1)NC(=O)[C@H](CC(C)C)NC(=O)[C@H](CC(C)C)NC(=O)OCC1c2ccccc2-c2ccccc21)C(=O)O` [L1] (HELM PEPTIDE1{[O=C(OCC1c2ccccc2-c2ccccc21)[*:2]].L.L.F.Y.L}$$$$V2.0; C-terminus assumed), for which the “viability of SHSY5Y cells relative to control (in words)” value with SHSY5Y cells is “high viability”. This compound had a viability at 24 h in the data set “in vitro” of 85%. The hydrogel formation result in data set [1] was “formed hydrogels”.
In the case of `CC(C)C[C@H](NC(=O)[C@H](Cc1ccc(O)cc1)NC(=O)[C@@H](NC(=O)[C@H](CC(C)C)NC(=O)[C@H](CC(C)C)NC(=O)OCC1c2ccccc2-c2ccccc21)C(C)C)C(=O)O` [L3] (HELM PEPTIDE1{[O=C(OCC1c2ccccc2-c2ccccc21)[*:2]].L.L.V.Y.L}$$$$V2.0; C-terminus assumed), in the data set on SHSY5Y cells, the “viability of SHSY5Y cells relative to control (in words)” value was “high viability”. Also, the viability at 24 h in the data set “in vitro” amounted to 87%. In data set [1], the hydrogel formation result is recorded as “formed hydrogels”.

As a reminder, the viability is a read-out of living cells in per cent, often relative to untreated cells. High values mean less harm to the cells, low ones more harm to the cells.
